From the Biogen ADME set (Fang et al. 2023) come the findings set out here.

Converted amounts (≈) assume the structure as drawn.

For the data set the following is noted: for aqueous solubility: pH 6.8.

`CCCNC(=O)Nc1ccc(Oc2ncnc3cc(OC)c(OC)cc23)cc1Cl`: the MDR1-MDCK efflux ratio turned out to be 6.08 and the aqueous solubility was 0.22 µg/mL (≈ 0.528 µM).
For the compound `O=C(c1ccccc1)N1CCN(C(=O)c2ccc(-c3ccccc3Cl)o2)CC1`, the MDR1-MDCK efflux ratio amounted to 0.683; the intrinsic clearance, human liver microsomes was 126 mL/min/kg; the intrinsic clearance, rat liver microsomes turned out to be 445 mL/min/kg; the aqueous solubility was found to be 34.9 µg/mL (≈ 88.4 µM).
`Cc1nc(Nc2ccc(F)cc2)nc2c1ncn2-c1ccc(F)cc1`: the MDR1-MDCK efflux ratio was 0.388 and the aqueous solubility was found to be 0.14 µg/mL (≈ 0.415 µM).
As for `C[C@H](Cc1cc2c(c(C(N)=O)c1)N(CCCO)CC2)NCCOc1ccccc1OCC(F)(F)F`, the MDR1-MDCK efflux ratio worked out at 27.4; the intrinsic clearance, human liver microsomes was determined as 59 mL/min/kg; the intrinsic clearance, rat liver microsomes amounted to 313 mL/min/kg.
`COc1nc2sc(C(=O)NC3CC3)c(N)c2c(C)c1Cl` displayed a fraction unbound, human plasma of 0.0176; a fraction unbound, rat plasma of 0.0283; an intrinsic clearance, human liver microsomes of 9.77 mL/min/kg; an intrinsic clearance, rat liver microsomes of 133 mL/min/kg.
On to `O=C(NCCc1c[nH]c2cccc(C3(O)CCOCC3)c12)c1cccs1`, for which the aqueous solubility is 65.5 µg/mL (≈ 177 µM).
For the compound `O=C(Nc1cccc(N2CCNC2=O)c1)C1NCC12CCCC2` (stereo unspecified), the MDR1-MDCK efflux ratio came to 22; the fraction unbound, human plasma came to 0.523; the intrinsic clearance, human liver microsomes was ≤ 4.74 mL/min/kg.
On to `CCCS(=O)(=O)NC1CCN(Cc2ccc(C)c(OC)c2)CC1`, for which the MDR1-MDCK efflux ratio is 1.43; the intrinsic clearance, human liver microsomes worked out at 16.5 mL/min/kg; the intrinsic clearance, rat liver microsomes is 798 mL/min/kg.
Turning to `COc1ccc2nc3c(cc2c1)CNCCO3`, the MDR1-MDCK efflux ratio was found to be 0.504; the intrinsic clearance, human liver microsomes was found to be 18.1 mL/min/kg; the intrinsic clearance, rat liver microsomes stood at 82.4 mL/min/kg.
Consider `Cc1noc(C)c1CCC(=O)Nc1cccnc1`, for which the MDR1-MDCK efflux ratio is 7.24; the intrinsic clearance, human liver microsomes is ≤ 4.74 mL/min/kg; the intrinsic clearance, rat liver microsomes was 32.1 mL/min/kg; the aqueous solubility is 55.7 µg/mL (≈ 227 µM).
In the case of `Cc1cccc(Oc2cc(CN)ccn2)c1C`, the MDR1-MDCK efflux ratio came to 0.443; the intrinsic clearance, human liver microsomes is ≤ 4.74 mL/min/kg; the intrinsic clearance, rat liver microsomes came to 527 mL/min/kg; the aqueous solubility was 30.1 µg/mL (≈ 132 µM).
`CC(C)CN1C(=O)C(=O)N(Cc2ccccn2)C1=O`: the MDR1-MDCK efflux ratio worked out at 0.838; the intrinsic clearance, human liver microsomes was ≤ 4.74 mL/min/kg; the intrinsic clearance, rat liver microsomes was determined as 28.4 mL/min/kg; the aqueous solubility worked out at 39.2 µg/mL (≈ 150 µM).
For the compound `CCc1nnc2n1CCN(C(=O)c1ccccc1Oc1cccnc1)C2`, the MDR1-MDCK efflux ratio was determined as 61.5; the intrinsic clearance, human liver microsomes stood at 4.83 mL/min/kg; the intrinsic clearance, rat liver microsomes amounted to 74.7 mL/min/kg; the aqueous solubility was 43.4 µg/mL (≈ 124 µM).
Take `COc1ccc(OC[C@@H]2c3cc(OC)c(OC)cc3CCN2C(=O)c2cccc(Cl)c2)cc1`: the MDR1-MDCK efflux ratio was found to be 1.25; the fraction unbound, human plasma is 0.00764; the fraction unbound, rat plasma was 0.0171.
Regarding `Cc1cc(C(=O)N(C)CC2CCN(CCO)CC2)cc(C)n1`, the MDR1-MDCK efflux ratio is 1.95; the intrinsic clearance, human liver microsomes turned out to be 7.92 mL/min/kg; the intrinsic clearance, rat liver microsomes stood at 29.2 mL/min/kg.
`CCn1nccc1-c1cc(C)nc(N2CCCC2)n1`: the MDR1-MDCK efflux ratio amounted to 0.641; the intrinsic clearance, human liver microsomes stood at 115 mL/min/kg; the intrinsic clearance, rat liver microsomes came to 398 mL/min/kg.
In the case of `Cc1cc(C)c2c(C(=O)N3CC4(CNC(=O)N4)C3)cc(C)nc2c1`, the MDR1-MDCK efflux ratio is 8.46; the intrinsic clearance, human liver microsomes was ≤ 4.74 mL/min/kg; the intrinsic clearance, rat liver microsomes is 30.7 mL/min/kg.
Regarding `NC(=O)c1csc(CN2CCc3cc(F)ccc3C2)c1`, the MDR1-MDCK efflux ratio was determined as 0.686; the intrinsic clearance, human liver microsomes came to 5.46 mL/min/kg; the intrinsic clearance, rat liver microsomes amounted to 252 mL/min/kg.
